Results taken from patent US10590078B2, “Sodium channel blockers” (Daewoong Pharmaceutical Co., Ltd., priority 2015, dated 2020).

Molecular target: human sodium ion channel 1.7 (hNav1.7) (Homo sapiens, UniProt Q15858)
Test: Blocking effect against sodium ion channel Nav1.7, IonFlux16 auto patch clamp in hNav1.7 HEK293 cells
Format: cell-based
Details: hNav1.7 HEK293 cells; inhibition of peak current after 50 seconds treatment; eight concentrations; read-out: IC50

Chain of human sodium ion channel 1.7 (hNav1.7) (Q15858 whole entry): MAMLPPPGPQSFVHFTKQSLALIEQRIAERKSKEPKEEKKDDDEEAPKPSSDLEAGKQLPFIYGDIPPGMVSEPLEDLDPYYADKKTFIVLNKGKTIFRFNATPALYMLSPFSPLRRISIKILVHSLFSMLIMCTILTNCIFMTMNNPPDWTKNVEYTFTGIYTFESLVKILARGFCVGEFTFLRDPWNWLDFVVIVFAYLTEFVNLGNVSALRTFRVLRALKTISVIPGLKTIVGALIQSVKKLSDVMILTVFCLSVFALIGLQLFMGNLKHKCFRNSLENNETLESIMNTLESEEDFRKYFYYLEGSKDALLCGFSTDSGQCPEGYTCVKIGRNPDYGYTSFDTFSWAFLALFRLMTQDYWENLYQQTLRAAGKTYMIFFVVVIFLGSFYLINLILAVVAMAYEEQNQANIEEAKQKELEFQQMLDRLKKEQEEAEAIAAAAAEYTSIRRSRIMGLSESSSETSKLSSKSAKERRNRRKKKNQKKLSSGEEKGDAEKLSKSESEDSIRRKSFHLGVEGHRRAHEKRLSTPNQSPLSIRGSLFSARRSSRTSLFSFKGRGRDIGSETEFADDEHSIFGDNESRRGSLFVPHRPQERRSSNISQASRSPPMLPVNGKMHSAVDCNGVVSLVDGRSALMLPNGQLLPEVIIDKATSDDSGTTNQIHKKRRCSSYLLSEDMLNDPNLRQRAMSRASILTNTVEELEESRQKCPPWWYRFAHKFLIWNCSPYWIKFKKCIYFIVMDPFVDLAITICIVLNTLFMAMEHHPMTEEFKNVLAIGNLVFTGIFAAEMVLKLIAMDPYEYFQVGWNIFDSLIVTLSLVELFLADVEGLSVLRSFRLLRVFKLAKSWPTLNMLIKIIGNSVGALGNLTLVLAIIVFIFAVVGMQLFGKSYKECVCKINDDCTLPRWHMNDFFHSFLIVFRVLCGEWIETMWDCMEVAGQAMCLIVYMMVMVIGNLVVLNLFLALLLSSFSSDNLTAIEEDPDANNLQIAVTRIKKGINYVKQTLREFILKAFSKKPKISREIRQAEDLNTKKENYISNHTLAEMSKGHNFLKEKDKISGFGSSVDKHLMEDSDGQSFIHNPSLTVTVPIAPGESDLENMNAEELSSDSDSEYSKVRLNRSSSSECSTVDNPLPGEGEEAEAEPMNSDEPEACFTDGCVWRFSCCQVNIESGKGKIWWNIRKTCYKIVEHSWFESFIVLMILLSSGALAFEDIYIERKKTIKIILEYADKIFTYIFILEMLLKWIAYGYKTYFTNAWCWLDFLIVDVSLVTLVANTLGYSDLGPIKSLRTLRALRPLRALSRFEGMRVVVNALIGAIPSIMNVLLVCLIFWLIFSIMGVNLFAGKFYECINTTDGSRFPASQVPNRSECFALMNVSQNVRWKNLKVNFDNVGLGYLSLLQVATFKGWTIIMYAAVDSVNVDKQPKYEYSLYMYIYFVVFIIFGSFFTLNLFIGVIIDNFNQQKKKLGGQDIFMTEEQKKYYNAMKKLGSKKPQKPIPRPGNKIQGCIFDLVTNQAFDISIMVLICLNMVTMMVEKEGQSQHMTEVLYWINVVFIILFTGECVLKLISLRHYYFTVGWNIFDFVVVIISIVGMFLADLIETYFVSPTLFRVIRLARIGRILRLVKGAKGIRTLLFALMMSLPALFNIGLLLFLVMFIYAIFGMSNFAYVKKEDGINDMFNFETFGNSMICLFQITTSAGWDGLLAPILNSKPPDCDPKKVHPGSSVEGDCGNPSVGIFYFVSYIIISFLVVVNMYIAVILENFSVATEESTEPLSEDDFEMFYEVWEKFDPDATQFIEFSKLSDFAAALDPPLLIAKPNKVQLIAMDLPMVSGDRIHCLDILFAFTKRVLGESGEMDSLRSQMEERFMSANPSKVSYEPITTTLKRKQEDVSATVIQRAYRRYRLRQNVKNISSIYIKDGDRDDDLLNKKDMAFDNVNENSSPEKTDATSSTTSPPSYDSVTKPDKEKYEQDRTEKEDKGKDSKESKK

SMILES	IC50 [nM]
CC(C)Cc1ccc2c(c1)c(-c1ccccc1)nn2-c1cc(F)c(C(=O)NS(C)(=O)=O)cc1Cl [Example 84, 5-chloro-2-fluoro-4-(5-isobutyl-3-phenyl-1H-indazol-1-yl)-N-(methylsulfonyl)benzamide]	110
CS(=O)(=O)NC(=O)c1cc(F)c(-n2nc(-c3ccc(F)cc3)c3cc(Cl)ccc32)cc1Cl [Example 112, 2-chloro-4-(5-chloro-3-(4-fluorophenyl)-1H-indazol-1-yl)-5-fluoro-N-(methylsulfonyl)benzamide]	789
CS(=O)(=O)NC(=O)c1cc(Cl)c(-n2nc(-c3cccc(F)c3)c3ccccc32)cc1F [Example 171, 5-chloro-2-fluoro-4-(3-(3-fluorophenyl)-1H-indazol-1-yl)-N-(methylsulfonyl)benzamide]	190
CS(=O)(=O)NC(=O)c1cc(Cl)c(-n2nc(-c3ccc(F)cc3)c3cc(F)ccc32)cc1F [Example 153, 5-chloro-2-fluoro-4-(5-fluoro-3-(4-fluorophenyl)-1H-indazol-1-yl)-N-(methylsulfonyl)benzamide]	200
CS(=O)(=O)NC(=O)c1ccc(-n2nc(-c3ccccc3F)c3cc(Cl)ccc32)c(C#N)c1 [Example 102, 4-(5-chloro-3-(2-fluorophenyl)-1H-indazol-1-yl)-3-cyano-N-(methylsulfonyl)benzamide]	1210
CS(=O)(=O)NC(=O)c1ccc(-n2nc(-c3ccc(C#N)cc3)c3cc(Cl)ccc32)c(C#N)c1 [Example 96, 4-(5-chloro-3-(4-cyanophenyl)-1H-indazol-1-yl)-3-cyano-N-(methylsulfonyl)benzamide]	> 10000
CS(=O)(=O)NC(=O)c1cc(Cl)c(-n2nc(Cl)c3cc(OCc4ccccc4)ccc32)cc1F [Example 28, 4-(5-(benzyloxy)-3-chloro-1H-indazol-1-yl)-5-chloro-2-fluoro-N-(methylsulfonyl)benzamide]	49
Cc1cc(F)ccc1-c1cn(-c2cc(F)c(C(=O)NS(C)(=O)=O)cc2Cl)c2ncc(F)cc12 [Example 212, 5-chloro-2-fluoro-4-(5-fluoro-3-(4-fluoro-2-methylphenyl)-1H-pyrrolo[2,3-b]pyridin-1-yl)-N-(methylsulfonyl)benzamide]	180
CS(=O)(=O)NC(=O)c1cc(Cl)c(-n2cc(-c3ccc(F)cc3F)c3cccnc32)cc1F [Example 229, 5-chloro-4-(3-(2,4-difluorophenyl)-1H-pyrrolo[2,3-b]pyridin-1-yl)-2-fluoro-N-(methylsulfonyl)benzamide]	180
CS(=O)(=O)NC(=O)c1cc(Cl)c(-n2nc(Cl)c3cc(-c4cccc(F)c4)ccc32)cc1F [Example 235, 5-chloro-4-(3-chloro-5-(3-fluorophenyl)-1H-indazol-1-yl)-2-fluoro-N-(methylsulfonyl)benzamide]	89
CS(=O)(=O)NC(=O)c1cc(Cl)c(-n2cc(-c3ccccc3C(F)(F)F)c3cc(Cl)cnc32)cc1F [Example 193, 5-chloro-4-(5-chloro-3-(2-(trifluoromethyl)phenyl)-1H-pyrrolo[2,3-b]pyridin-1-yl)-2-fluoro-N-(methylsulfonyl)benzamide]	100
CS(=O)(=O)NC(=O)c1cc(Cl)c(-n2cc(-c3cccc(C(F)(F)F)c3)c3cccnc32)cc1F [Example 217, 5-chloro-2-fluoro-N-(methylsulfonyl)-4-(3-(3-(trifluoromethyl)phenyl)-1H-pyrrolo[2,3-b]pyridin-1-yl)benzamide]	530
CS(=O)(=O)NC(=O)c1cc(Cl)c(-n2cc(C(=O)O)c3cc(Cl)ccc32)cc1F [Example 265, 5-chloro-1-(2-chloro-5-fluoro-4-((methylsulfonyl)carbamoyl)phenyl)-1H-indole-3-carboxylic acid]	300 to 1000
Cc1cccc(-c2ccc3c(c2)c(Cl)nn3-c2cc(F)c(C(=O)NS(C)(=O)=O)cc2Cl)c1 [Example 233, 5-chloro-4-(3-chloro-5-(m-tolyl)-1H-indazol-1-yl)-2-fluoro-N-(methylsulfonyl)benzamide]	68
CS(=O)(=O)NC(=O)c1cc(Cl)c(-n2cc(-c3cc(F)cc(Cl)c3)c3cccnc32)cc1F [Example 220, 5-chloro-4-(3-(3-chloro-5-fluorophenyl)-1H-pyrrolo[2,3-b]pyridin-1-yl)-2-fluoro-N-(methylsulfonyl)benzamide]	540
CS(=O)(=O)NC(=O)c1cc(Cl)c(-n2cc(-c3ccccc3Cl)c3cc(Cl)cnc32)cc1F [Example 198, 5-chloro-4-(5-chloro-3-(2-chlorophenyl)-1H-pyrrolo[2,3-b]pyridin-1-yl)-2-fluoro-N-(methylsulfonyl)benzamide]	170
CS(=O)(=O)NC(=O)c1ccc(-n2nc(Cl)c3cc(OCc4ccccc4)ccc32)c(Cl)c1 [Example 44, 4-(5-(benzyloxy)-3-chloro-1H-indazol-1-yl)-3-chloro-N-(methylsulfonyl)benzamide]	166
CS(=O)(=O)NC(=O)c1ccc(-n2nc(-c3cccc(C#N)c3)c3cc(Cl)ccc32)c(F)c1 [Example 119, 4-(5-chloro-3-(3-cyanophenyl)-1H-indazol-1-yl)-3-fluoro-N-(methylsulfonyl)benzamide]	1790
CS(=O)(=O)NC(=O)c1ccc(-n2nc(-c3cccc(C#N)c3)c3ccccc32)c(C#N)c1 [Example 183, 3-cyano-4-(3-(3-cyanophenyl)-1H-indazol-1-yl)-N-(methylsulfonyl)benzamide]	> 10000
CS(=O)(=O)NC(=O)c1cc(Cl)c(-n2cc(-c3ccc(Cl)cc3)c3cc(Cl)cnc32)cc1F [Example 195, 5-chloro-4-(5-chloro-3-(4-chlorophenyl)-1H-pyrrolo[2,3-b]pyridin-1-yl)-2-fluoro-N-(methylsulfonyl)benzamide]	80
CS(=O)(=O)NC(=O)c1cc(Cl)c(-n2cc(-c3ccc(F)cc3Cl)c3cc(F)cnc32)cc1F [Example 202, 5-chloro-4-(3-(2-chloro-4-fluorophenyl)-5-fluoro-1H-pyrrolo[2,3-b]pyridin-1-yl)-2-fluoro-N-(methylsulfonyl)benzamide]	50
Cc1nn(-c2cc(F)c(C(=O)NS(C)(=O)=O)cc2Cl)c2ccc(OCc3ccccc3)cc12 [Example 30, 4-(5-(benzyloxy)-3-methyl-1H-indazol-1-yl)-5-chloro-2-fluoro-N-(methylsulfonyl)benzamide]	247
CS(=O)(=O)NC(=O)c1ccc(-n2nc(-c3cccc(F)c3)c3cc(Cl)ccc32)c(F)c1 [Example 125, 4-(5-chloro-3-(3-fluorophenyl)-1H-indazol-1-yl)-3-fluoro-N-(methylsulfonyl)benzamide]	560
CN(C)S(=O)(=O)NC(=O)c1cc(Cl)c(-n2nc(Cl)c3cc(OCc4ccccc4)ccc32)cc1F [Example 43, 4-(5-(benzyloxy)-3-chloro-1H-indazol-1-yl)-5-chloro-N—(N,N-dimethylsulfamoyl)-2-fluorobenzamide]	200

More lines, now with the values ahead:

IC50 [nM]	SMILES
279	CS(=O)(=O)NC(=O)c1ccc(-n2nc(-c3ccc(Cl)cc3F)c3cc(Cl)ccc32)c(C#N)c1 [Example 100, 4-(5-chloro-3-(4-chloro-2-fluorophenyl)-1H-indazol-1-yl)-3-cyano-N-(methylsulfonyl)benzamide]
90	CS(=O)(=O)NC(=O)c1cc(Cl)c(-n2nc(-c3cccc(F)c3)c3cc(F)ccc32)cc1F [Example 148, 5-chloro-2-fluoro-4-(5-fluoro-3-(3-fluorophenyl)-1H-indazol-1-yl)-N-(methylsulfonyl)benzamide]
1430	CN(C(=O)c1cc(Cl)c(-n2nc(-c3ccc(Cl)cc3F)c3cc(Cl)ccc32)cc1F)S(C)(=O)=O [Example 139, 5-chloro-4-(5-chloro-3-(4-chloro-2-fluorophenyl)-1H-indazol-1-yl)-2-fluoro-N-methyl-N-(methylsulfonyl)benzamide]
341	CS(=O)(=O)NC(=O)c1cc(Cl)c(-n2nc(Cl)c3cc(-c4cc(C#N)ccc4F)ccc32)cc1F [Example 238, 5-chloro-4-(3-chloro-5-(5-cyano-2-fluorophenyl)-1H-indazol-1-yl)-2-fluoro-N-(methylsulfonyl)benzamide]
37	CS(=O)(=O)NC(=O)c1cc(Cl)c(-n2nc(-c3cc(Cl)ccc3F)c3cc(Cl)ccc32)cc1F [Example 69, 5-chloro-4-(5-chloro-3-(5-chloro-2-fluorophenyl)-1H-indazol-1-yl)-2-fluoro-N-(methylsulfonyl)benzamide]
240	CS(=O)(=O)NC(=O)c1cc(Cl)c(-n2nc(-c3ccc([N+](=O)[O-])cc3)c3cc(Cl)ccc32)cc1F [Example 81, 5-chloro-4-(5-chloro-3-(4-nitrophenyl)-1H-indazol-1-yl)-2-fluoro-N-(methylsulfonyl)benzamide]
80	CS(=O)(=O)NC(=O)c1cc(Cl)c(-n2nc(-c3ccc(OC(F)(F)F)cc3)c3cc(Cl)ccc32)cc1F [Example 83, 5-chloro-4-(5-chloro-3-(4-(trifluoromethoxy)phenyl)-1H-indazol-1-yl)-2-fluoro-N-(methylsulfonyl)benzamide]
100	CN(C)S(=O)(=O)NC(=O)c1cc(Cl)c(-n2nc(-c3ccc(Cl)cc3F)c3cc(Cl)ccc32)cc1F [Example 138, 5-chloro-4-(5-chloro-3-(4-chloro-2-fluorophenyl)-1H-indazol-1-yl)-N—(N,N-dimethylsulfamoyl)-2-fluorobenzamide]
304	CS(=O)(=O)NC(=O)c1cc(Cl)c(-n2nc(Cl)c3cc(-c4ccc(Cl)cc4F)ccc32)cc1F [Example 247, 5-chloro-4-(3-chloro-5-(4-chloro-2-fluorophenyl)-1H-indazol-1-yl)-2-fluoro-N-(methylsulfonyl)benzamide]
117	CS(=O)(=O)NC(=O)c1cc(Cl)c(-n2nc(Cl)c3cc(Cl)ccc32)cc1F [Example 9, 5-chloro-4-(3,5-dichloro-1H-indazol-1-yl)-2-fluoro-N-(methylsulfonyl)benzamide]
7910	CS(=O)(=O)NC(=O)c1cc(Cl)c(-n2nc(-c3ccc(N)cc3)c3cc(Cl)ccc32)cc1F [Example 82, 4-(3-(4-aminophenyl)-5-chloro-1H-indazol-1-yl)-5-chloro-2-fluoro-N-(methylsulfonyl)benzamide]
